# Experimental data reported in patent US11919892B1, “2-(benzo[d]thiazol-2-yl)-N'-(2-(5-(4-chlorophenyl)-1,3,4-oxadiazol-2-ylthio)acetoxy)acetimidamide as an antimicrobial compound” (KING FAISAL UNIVERSITY, priority 2023, dated 2024).
# Assays:
# [1] = tested on: Bacillus Cereus; test: Agar plate disc-diffusion, antibacterial, Bacillus cereus; type: cell-based; details: nutrient agar, 37° C., 48 hours
# Experimental: (§1) The agar plate disc-diffusion method was applied. Sterilized filter papers (6 mm in diameter) were wetted with 10 μL of a solution of 2-(benzo[d]thiazol-2-yl)-N′-(2-(5-(4-chlorophenyl)-1, 3,4-oxadiazol-2-ylthio)acetoxy)acetimidamide (3) to be tested, containing 10 mg/mL in DMSO, and the discs were allowed to air dry. The discs were then placed onto the surface of agar plates (nutrient agar for bacteria and Sabouraud's dextrose agar for fungi) seeded with the test organism. Each plate contained 15 mL of the agar medium, previously seeded with 0.2 mL of the broth culture of each organism pregrown for 18 hours. The plates were incubated at 37° C. for 48 hours and 72 hours for fungi. The inhibition zones were measured in mm. Discs impregnated with DMSO were used as a control, and their inhibition zone was subtracted from the tested compound's actual inhibition zone.
# [2] = tested on: Staphylococcus aureus; test: Agar plate disc-diffusion, antibacterial, Staphylococcus aureus; type: cell-based; details: nutrient agar, 37° C., 48 hours
# Experimental: as §1
# [3] = tested on: Pseudomonas aeruginosa; test: Agar plate disc-diffusion, antibacterial, Pseudomonas aeruginosa; type: cell-based; details: nutrient agar, 37° C., 48 hours
# Experimental: as §1
# [4] = tested on: Escherichia coli; test: Agar plate disc-diffusion, antibacterial, Escherichia coli; type: cell-based; details: nutrient agar, 37° C., 48 hours
# Experimental: as §1
# [5] = tested on: Aspergillus flavus; test: Agar plate disc-diffusion, antifungal, Aspergillus flavus; type: cell-based; details: Sabouraud's dextrose agar, 72 hours
# Experimental: as §1
# [6] = tested on: Chrysosporium keratinophilum; test: Agar plate disc-diffusion, antifungal, Chrysosporium keratinophilum; type: cell-based; details: Sabouraud's dextrose agar, 72 hours
# Experimental: as §1
# [7] = B = concentration of comp. = 30,000 μL
# [8] = C = concentration of comp. = 50,000 μL
# [9] = A = concentration of comp. = 10,000 μL
smiles,measurement,setting,value
"N/C(Cc1nc2ccccc2s1)=N\OC(=O)CSc1nnc(-c2ccc(Cl)cc2)o1 [compound 3, 2-(benzo[d]thiazol-2-yl)-N′-(2-(5-(4-chlorophenyl)-1,3,4-oxadiazol-2-ylthio)acetoxy)acetimidamide]","inhibition zone, Bacillus Cereus, A",[1]; A =,25 mm
same,"inhibition zone, Bacillus Cereus, B",[1]; [7],28 mm
same,"inhibition zone, Bacillus Cereus, C",[1]; [8],39 mm
same,"inhibition zone, Staphylococcus aureus, A",[2]; [9],33 mm
same,"inhibition zone, Staphylococcus aureus, B",[2]; [7],40 mm
same,"inhibition zone, Staphylococcus aureus, C",[2]; [8],52 mm
same,"inhibition zone, Pseudomonas aeruginosa, A",[3]; [9],23 mm
same,"inhibition zone, Pseudomonas aeruginosa, B",[3]; [7],27 mm
same,"inhibition zone, Pseudomonas aeruginosa, C",[3]; [8],43 mm
same,"inhibition zone, Escherichia coli, A",[4]; [9],25 mm
same,"inhibition zone, Escherichia coli, B",[4]; [7],34 mm
same,"inhibition zone, Escherichia coli, C",[4]; [8],47 mm
same,"inhibition zone, Aspergillus flavus, A",[5]; [9],24 mm
same,"inhibition zone, Aspergillus flavus, B",[5]; [7],29 mm
same,"inhibition zone, Aspergillus flavus, C",[5]; [8],41 mm
same,"inhibition zone, Chrysosporium keratinophilum, A",[6]; [9],26 mm
same,"inhibition zone, Chrysosporium keratinophilum, B",[6]; [7],31 mm
same,"inhibition zone, Chrysosporium keratinophilum, C",[6]; [8],49 mm
same,melting point,,157 to 158 °C
